Measurements taken from US6541237B1, “A-1,4-glucan lyase and its use in the production of 1.5-androfructose” (Danisco A/S, priority 1994, dated 2003).
Values belong to the molecule of their own block, whether it stands above or below them.

Tests used:
[1] = test system: α-1,4-glucan lyase; assay: Reversible and irreversible inhibitors of the lyase; format: biochemical, Gracilariopsis lemaneiformis
[2] = test system: α-1,4-glucan lyase; assay: Degradation studies: AF released by the lyase from various substrates; format: biochemical, Gracilariopsis lemaneiformis; details: for degradation by the lyase / activity of the lyase towards maltosaccharides: in words; for AF released: substrate 10 mg/ml, 10 mM HOAc-NaOAc pH 3.8, 40 min at 45° C., 100 ul
Method: Reaction conditions: The reaction mixture contained 10 mM of HOAc-NaOAc (pH 3.8). The substrate concentration was 10 mg/ml. The final volume was 100 ul after the addition of lyase and water. The reaction time was 40 min at 45° C.

[3] = test system: α-1,4-glucan lyase; assay: Effect of alcohols on activity and stability of the lyase (AF yield); format: biochemical, Gracilariopsis lemaneiformis
Method: 1-propanol, 2-propanol and 1-butanol were tested at the following concentrations (0%, 1%, 5% and 10%).
Ethanol was tested at the following concentrations (0, 1, 3, 5, 7, 9, 11, 13, 15%).

[4] = Isoelectric focusing of the α-1,4-glucan lyases; format: physicochemical; details: isoelectrofocusing, pH gradient 3-9
Description: The relative migration rates were estimated from native PAGE on gels with 8-25% gradient; the pI values were estimated by isoelectrofocusing on gels with a pH gradient of 3-9.
FIG. 2. Isoelectric focusing of the α-1,4-glucan lyases on a gel with a pH gradient of pH 3 to pH 9. The gel was stained with PhastGel Blue R.

Molecule: O=C(O)c1cc[c]([Hg][Cl])cc1 [PCMB, p-chloromercuribenzoic acid]
decrease of lyase activity ([1]; 2 mM PCMB, same assay conditions as for deoxyjirimycin (substrate 2% amylopectin)): 60%
inhibition of the lyase activity ([1]; final concentration 2 mM PCMB): 96%

Molecule: 1-butanol
increase of AF yield ([3]; optimal concentration 5%, after 3-day incubation): 52%

Molecule: OC[C@H]1O[C@H](O[C@H]2[C@H](O)[C@@H](O)[C@@H](O[C@H]3[C@H](O)[C@@H](O)[C@@H](O[C@H]4[C@H](O)[C@@H](O)C(O)O[C@@H]4CO)O[C@@H]3CO)O[C@@H]2CO)[C@H](O)[C@@H](O)[C@@H]1O (stereo partly shown) [Maltotetraose]
activity of the lyase towards maltosaccharides [2]: highest activity
AF released [2]: 670 nmol

Molecule: Maltohexaose
AF released [2]: 826 nmol

Molecule: CCO [Ethanol]
increase of AF yield ([3]; optimal concentration 3%, 10 days incubation): 16%
increase of AF yield ([3]; optimal concentration 5%, 7 days incubation): 12%

Molecule: OCC1OC(OC2C(CO)OC(OC3C(CO)OC(O)C(O)C3O)C(O)C2O)C(O)C(O)C1O (stereo not shown) [Maltotriose]
activity of the lyase towards maltosaccharides [2]: lower activity
AF released [2]: 654 nmol

Molecule: Maltopentaose
activity of the lyase towards maltosaccharides [2]: highest activity
AF released [2]: 674 nmol

Molecule: Maltoheptaose
activity of the lyase towards maltosaccharides [2]: lower activity
AF released [2]: 865 nmol

Molecule: 1-propanol
AF yield ([3]; 1% (v/v), reaction time 1 day): 80 µmol
AF yield ([3]; 1% (v/v), reaction time 3 days): 280 µmol
AF yield ([3]; 1% (v/v), reaction time 6 days): 530 µmol
AF yield ([3]; 1% (v/v), reaction time 10 days): 803 µmol
AF yield ([3]; 5% (v/v), reaction time 1 day): 115 µmol
AF yield ([3]; 5% (v/v), reaction time 3 days): 367 µmol
AF yield ([3]; 5% (v/v), reaction time 6 days): 605 µmol
AF yield ([3]; 5% (v/v), reaction time 10 days): 853 µmol
AF yield ([3]; 10% (v/v), reaction time 1 day): 107 µmol
AF yield ([3]; 10% (v/v), reaction time 3 days): 307 µmol
AF yield ([3]; 10% (v/v), reaction time 6 days): 456 µmol
AF yield ([3]; 10% (v/v), reaction time 10 days): 583 µmol
increase of AF yield ([3]; optimal concentration 5%, after 6 days of incubation): 34%

Molecule: CC(C)O [2-propanol]
increase of AF yield ([3]; optimal concentration 1%, after 10 days incubation): 20%

B1: GLsc1-lyase: lyase purified from Gracilariopsis lemaneiformis collected in Santa Cruz, Calif. (protein)
chain: TALSDKQTAISIGPDNPDGINYQNYDYIPVAGFTPLSNTNWYAAGSSTPGGITDWTATMNVKFDRIDNPSYSNNHPVQIQVTSYNNNSFRIRFNPDGPIRDVSRGPILKQQLTWIRNQELAQGCNPNMSFSPEGFLSFETKDLNVIIYGNCKMRVTKKDGYLVMENDECNSQSDGNKCRGLMYVDRLYGNAIASVQTNFHKDTSRNEKFYGAGEVNCRYEEQGKAPTYVLERSGLAMTNYNYDNLNYNQPDVVPPGYPDHPNYYIPMYYAAPWLVVQGCAGTSKQYSYGWFMDNVSQSYMNTGDTAWNCGQENLAYMGAQYGPFDQHFVYGDGDGLEDVVKAFSFLQGKEFEDKKLNKRSVMPPKYVFGFFQGVFGALSLLKQNLPAGENNISVQEIVEGYQDNDYPFEGLAVDVDMQDDLRVFTTKPEYWSANMVGEGGDPNNRSVFEWAHDRGLVCQTNVTCFLRNDNSGKPYEVNQTLREKQLYTKNDSLNNTDFGTTSDGPGDAYIGHLDYGGGVECDAIFPDWGRPDVAQWWGENYKKLFSIGLDFVWQDMTVPAMMPHRLGDAVNKNSGSSAPGWPNENDPSNGRYNWKSYHPQVLVTDMRYGAEYGREPMVSQRNIHAYTLCESTRREGIVGNADSLTKFRRSYIISRGGYIGNQHFGGMWVGDNSATESYLQMMLANIINMNMSCLPLVGSDIGGFTQYNDAGDPTPEDLMVRFVQAGCLLPWFRNHYDRWIESKKHGKKYQELYMYPGQKDTLKKFVEFRYRWQEVLYTAMYQNATTGEPIIKAAPMYNNDVNVYKSQNDHFLLGGHDGYRILCAPVVRENATSREVYLPVYSKWFKFGPDFDTKPLENEIQGGQTLYNYAAPLNDSPIFVREGTILPTRYTLDGVNKSINTYTDNDPLVFELFPLENNQAHGLFYHDDGGVTTNAEDFGKYSVISVKAAQEGSQMSVKFDNEVYEHQWGASFYVRVRNMGAPSNINVSSQIGQQDMQQSSVSSRAQMFTSANDGEYWVDQSTNSLWLKLPGAVIQDAAITVR
pI [4]: 4.1

B2: GLsc2-lyase: second lyase purified from Gracilariopsis lemaneiformis collected in Santa Cruz, Calif. (protein)
chain: B1 chain
pI [4]: 4.1

B3: MC-lyase: lyase isolated from the fungus Morchella costata, ATCC (protein)
chain: MAGFSDPLNFCKAEDYYSVALDWKGPQKIIGVDTTPPKSTKFPKNWHGVNLRFDDGTLGVVQFIRPCVWRVRYDPGFKTSDEYGDENTRTIVQDYMSTLSNKLDTYRGLTWETKCEDSGDFFTFSSKVTAVEKSERTRNKVGDGLRIHLWKSPFRIQVVRTLTPLKDPYPIPNVAAAEARVSDKVVWQTSPKTFRKNLHPQHKMLKDTVLDIVKPGHGEYVGWGEMGGIQFMKEPTFMNYFNFDNMQYQQVYAQGALDSREPLYHSDPFYLDVNSNPEHKNITATFIDNYSQIAIDFGKTNSGYIKLGTRYGGIDCYGISADTVPEIVRLYTGLVGRSKLKPRYILGAHQACYGYQQESDLYSVVQQYRDCKFPLDGIHVDVDVQDGFRTFTTNPHTFPNPKEMFTNLRNNGIKCSTNITPVISINNREGGYSTLLEGVDKKYFIMDDRYTEGTSGNAKDVRYMYYGGGNKVEVDPNDVNGRPDFKDNYDFPANFNSKQYPYHGGVSYGYGNGSAGFYPDLNRKEVRIWWGMQYKYLFDMGLEFVWQDMTTPAIHTSYGDMKGLPTRLLVTSDSVTNASEKKLAIETWALYSYNLHKATWHGLSRLESRKNKRNFILGRGSYAGAYRFAGLWTGDNASNWEFWKISVSQVLSLGLNGVCIAGSDTGGFEPYRDANGVEEKYCSPELLIRWYTGSFLLPWLRNHYVKKDRKWFQEPYSYPKHLETHPELADQAWLYKSVLEICRYYVELRYSLIQLLYDCMFQNVVDGMPITRSMLLTDTEDTTFFNESQKFLDNQYMAGDDILVAPILHSRKEIPGENRDVYLPLYHTWYPSNLRPWDDQGVALGNPVEGGSVINYTARIVAPEDYNLFHSVVPVYVREGAIIPQIEVRQWTGQGGANRIKFNIYPGKDKEYCTYLDDGVSRDSAPEDLPQYKETHEQSKVEGAEIAKQIGKKTGYNISGTDPEAKGYHRKVAVTQTSKDKTRTVTIEPKHNGYDPSKEVGDYYTIILWYAPGFDGSIVDVSKTTVNVEGGVEHQVYKNSDLHTVVIDVKEVIGTTKSVKITCTAA
pI [4]: 4.5

The next lines start with the values.

degradation by the lyase [2]: not able to degrade
Molecule: OC[C@H]1O[C@@H]2O[C@H]3[C@H](O)[C@@H](O)[C@@H](O[C@H]4[C@H](O)[C@@H](O)[C@@H](O[C@H]5[C@H](O)[C@@H](O)[C@@H](O[C@H]6[C@H](O)[C@@H](O)[C@@H](O[C@H]7[C@H](O)[C@@H](O)[C@@H](O[C@H]8[C@H](O)[C@@H](O)[C@@H](O[C@H]1[C@H](O)[C@H]2O)O[C@@H]8CO)O[C@@H]7CO)O[C@@H]6CO)O[C@@H]5CO)O[C@@H]4CO)O[C@@H]3CO [β-cyclodextrins]

remaining lyase activity ([1]; 25 μM inhibitor, substrate amylopectin 2%, algal lyase): 10.4%
lyase activity ([1]; 100 μM inhibitor, substrate amylopectin 2%): completely lost
Molecule: OC[C@H]1NC[C@H](O)[C@@H](O)[C@@H]1O [deoxyjirimycin]

degradation by the lyase [2]: slow rate
Molecule: panose

degradation by the lyase [2]: not able to degrade
Molecule: OC[C@H]1O[C@H](O[C@H]2O[C@H](CO)[C@@H](O)[C@H](O)[C@H]2O)[C@H](O)[C@@H](O)[C@@H]1O [trehalose]

degradation by the lyase [2]: not able to degrade
Molecule: pullulan

degradation by the lyase [2]: slow rate
Molecule: OC[C@H]1O[C@H](O[C@H]2[C@H](O)[C@@H](CO)OC(O)[C@@H]2O)[C@H](O)[C@@H](O)[C@@H]1O (stereo partly shown) [nigerose]

degradation by the lyase [2]: not able to degrade
Molecule: OC[C@H]1O[C@H](OC[C@H]2OC(O)[C@H](O)[C@@H](O)[C@@H]2O)[C@H](O)[C@@H](O)[C@@H]1O (stereo partly shown) [isomaltose]

degradation by the lyase [2]: not able to degrade
Molecule: nigeran tetrasaccharide
